According to patent publication US20260285850A1, “SUBSTITUTED OXAZOLIDINONES AND IMIDAZOLINONES AS HERBICIDES” (FMC CORPORATION, priority 2023, published 2026):

Columns and labels:
Type in all cases: in vivo
[1] = tested on: ragweed (common ragweed, Ambrosia artemisiifolia); test: Test A postemergence application, visual injury rating 0-100; conditions: Postemergence, 1000 g ai/ha, 0 to 100 scale, 10 days
Method in brief: (§1)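 Plants were grown in a loam soil-sand blend and treated with test chemical in a non-phytotoxic solvent mixture containing surfactant, either sprayed on soil preemergence or applied postemergence to 2-10 cm plants. After 10 days in a greenhouse, injury was scored visually against untreated controls, 0 meaning no effect and 100 complete control.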

[2] = tested on: blackgrass (Alopecurus myosuroides); test: as above; conditions: Postemergence, 1000 g ai/ha, 0 to 100 scale, 10 days
Method in brief: as §1

[3] = tested on: horseweed (Erigeron canadensis); test: as above; conditions: Postemergence, 1000 g ai/ha, 0 to 100 scale, 10 days
Method in brief: as §1

kochia (Bassia scoparia) [4] = test: as above; conditions: Postemergence, 1000 g ai/ha, 0 to 100 scale, 10 days
Method in brief: as §1

[5] = tested on: goosegrass (Eleusine indica); test: as above; conditions: 1000 g ai/ha, 0 to 100 scale, 10 days
Method in brief: as §1

[6] = tested on: palmer (palmer amaranth, palmer pigweed, Amaranthus palmeri); test: as above; conditions: Postemergence, 1000 g ai/ha, 0 to 100 scale, 10 days
Method in brief: as §1

[7] = tested on: ryegrass, Italian (italian ryegrass, Lolium multiflorum); test: as above; conditions: Postemergence, 1000 g ai/ha, 0 to 100 scale, 10 days
Method in brief: as §1

[8] = tested on: foxtail, giant (giant foxtail, Setaria faberi); test: as above; conditions: 1000 g ai/ha, 0 to 100 scale, 10 days
Method in brief: as §1

[9] = tested on: galium (catchweed bedstraw, Galium aparine); test: as above; conditions: Postemergence, 1000 g ai/ha, 0 to 100 scale, 10 days
Method in brief: as §1

[10] = tested on: ducksalad (Heteranthera limosa); test: Test B flooded paddy test, visual plant response rating 0-100; conditions: 250 g ai/ha, Flood, applied to paddy water, evaluated after 13 days
Method in brief: (§2)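 Treatment occurs at the 2-leaf stage by adding compound to floodwater standing 3 cm above the soil, a level kept for the whole test. Plants stay in the greenhouse 13 days before visual comparison with controls.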

[11] = tested on: sedge, umbrella (small-flower umbrella sedge, Cyperus difformis); test: as above; conditions: 250 g ai/ha, Flood, applied to paddy water, evaluated after 13 days
Method in brief: as §2

[12] = tested on: barnyardgrass (Echinochloa crusgalli); test: as above; conditions: 250 g ai/ha, Flood, applied to paddy water, evaluated after 13 days
Method in brief: as §2

rice (Oryza sativa) = test: as above; conditions: 250 g ai/ha, Flood, applied to paddy water, evaluated after 13 days
Method in brief: as §2

[13] = tested on: ragweed (common ragweed, Ambrosia artemisiifolia); test: Test A preemergence soil spray, visual injury rating 0-100; conditions: 1000 g ai/ha, 10 days, 0 = no effect, 100 = complete control
Method in brief: as §1

[14] = tested on: blackgrass (Alopecurus myosuroides); test: as above; conditions: 1000 g ai/ha, 10 days, 0 = no effect, 100 = complete control
Method in brief: as §1

kochia (Bassia scoparia) [15] = test: as above; conditions: 1000 g ai/ha, 10 days, 0 = no effect, 100 = complete control
Method in brief: as §1

[16] = tested on: goosegrass (Eleusine indica); test: as above; conditions: 1000 g ai/ha, 10 days, 0 = no effect, 100 = complete control
Method in brief: as §1

[17] = tested on: palmer (palmer amaranth, palmer pigweed, Amaranthus palmeri); test: as above; conditions: 1000 g ai/ha, 10 days, 0 = no effect, 100 = complete control
Method in brief: as §1

[18] = tested on: ryegrass, Italian (italian ryegrass, Lolium multiflorum); test: as above; conditions: 1000 g ai/ha, 10 days, 0 = no effect, 100 = complete control
Method in brief: as §1

[19] = tested on: foxtail, giant (giant foxtail, Setaria faberi); test: as above; conditions: 1000 g ai/ha, 10 days, 0 = no effect, 100 = complete control
Method in brief: as §1

What does the source list for `CCOC(=O)C1C=CC(NC(=O)C2(C)CN(c3cc(F)cc(F)c3)C(=O)O2)C1` (centres unmarked) [Compound 28]?
Ragweed plant response rating [1]: 70; Blackgrass plant response rating [2]: 100; Horseweed plant response rating [3]: 80; Kochia plant response rating (kochia (Bassia scoparia) [4]): 80; Goosegrass plant response rating [5]: 90; Amaranth, Palmer plant response rating [6]: 90; Ryegrass, Italian plant response rating [7]: 80; Foxtail, Giant plant response rating [8]: 90; Galium plant response rating [9]: 70; Plant response rating, Ducksalad (0 to 100 scale, 0 is no effect and 100 is complete control) [10]: 75; Plant response rating, Sedge, Umbrella (0 to 100 scale, 0 is no effect and 100 is complete control) [11]: 65; Plant response rating, Barnyardgrass (0 to 100 scale, 0 is no effect and 100 is complete control) [12]: 85; Plant response rating, Rice (0 to 100 scale, 0 is no effect and 100 is complete control) (rice (Oryza sativa)): 70; Ragweed plant response rating (0 to 100 scale) [13]: 80; Blackgrass plant response rating (0 to 100 scale) [14]: 90; Kochia plant response rating (0 to 100 scale) (kochia (Bassia scoparia) [15]): 100; Goosegrass plant response rating (0 to 100 scale) [16]: 100; Amaranth, Palmer / Pigweed, Palmer plant response rating (0 to 100 scale) [17]: 100; Ryegrass, Italian plant response rating (0 to 100 scale) [18]: 100; Foxtail, Giant plant response rating (0 to 100 scale) [19]: 100
